In general, IC50 refers to the midpoint of a concentration-inhibition curve.

In the assay the target is Gamma-secretase. The experiment in a line: Inhibition of amyloid beta protein production in transfected H4 (neuroglioma) cells expressing […] constructs. The assay is classed as functional, cell-based, Homo sapiens.
Take `CC(C)CCC(=O)N[C@@H](CC(C)C)C(=O)N[C@@H](CC1CCCCC1)[C@@H](O)C(=O)Cc1ccccc1`: the IC50 is 300 nM. The result for `CC(=O)[C@H](O)[C@H](CC1CCCCC1)NC(=O)[C@H](CC(C)C)NC(=O)Cc1ccccc1` reads 900 nM; that for `CCOC(=O)[C@H](O)[C@H](CC1CCCCC1)NC(=O)[C@H](CC(C)C)NC(=O)Cc1cccc(F)c1`, 920 nM. The compound `CCOC(=O)[C@H](O)[C@H](CC1CCCCC1)NC(=O)[C@@H](NC(=O)/C=C/c1ccccc1)C(C)C` gave an IC50 of 5000 nM.

Take `CCOC(=O)[C@H](O)[C@H](CC1CCCCC1)NC(=O)[C@@H](NC(=O)Cc1ccccc1F)C(C)C`: 17000 nM corresponded to half-maximal inhibition (IC50). The result for `CCOC(=O)[C@H](O)[C@H](CC1CCCCC1)NC(=O)[C@H](CC(C)C)NC(=O)Cc1ccc(F)cc1` reads 1800 nM; that for `CC(=O)[C@H](O)[C@H](CC1CCCCC1)NC(=O)[C@H](CC(C)C)NC(=O)Cc1cc(F)cc(F)c1`, 180 nM; that for `CC(C)CCC(=O)N[C@@H](CC(C)C)C(=O)N[C@@H](CC1CCCCC1)[C@@H](O)C(=O)c1ccccc1`, 4500 nM.

The compound `CCOC(=O)[C@H](O)[C@H](CC1CCCCC1)NC(=O)[C@@H](NC(=O)C(=O)c1ccccc1)C(C)C` displayed an IC50 of 3300 nM. The IC50 values of the last two compounds are within 1.5-fold of each other. With `CCOC(=O)[C@H](O)[C@H](CC1CCCCC1)NC(=O)[C@@H](NC(=O)C1(c2ccccc2)CC1)C(C)C`, the IC50 is > 25000 nM. The result for `CCOC(=O)[C@H](O)[C@H](CC1CCCCC1)NC(=O)[C@@H](NC(=O)c1ccccc1)C(C)C` reads > 25000 nM; that for `CCOC(=O)[C@H](O)[C@H](CC1CCCCC1)NC(=O)[C@H](NC(=O)Cc1ccccc1)C(C)C`, > 25000 nM; that for `CCOC(=O)[C@H](O)[C@H](CC1CCCCC1)NC(=O)[C@H](CC(C)C)NC(=O)Cc1cc(F)cc(F)c1`, 450 nM.

In the case of `CCCC(=O)[C@H](O)[C@H](CC1CCCCC1)NC(=O)[C@H](CC(C)C)NC(=O)Cc1ccccc1`, the IC50 worked out at 600 nM.

As for `CC(C)C[C@H](NC(=O)Cc1ccccc1)C(=O)N[C@@H](CC1CCCCC1)[C@@H](O)C(=O)O`, the IC50 worked out at 15000 nM. This IC50 lies about 25-fold higher than the previous one. The figure for `CC(C)C[C@H](NC(=O)Cc1cc(F)cc(F)c1)C(=O)N[C@@H](CC1CCCCC1)[C@@H](O)C(=O)Cc1ccccc1` is 160 nM; for `CCOC(=O)[C@H](O)[C@H](CC1CCCCC1)NC(=O)[C@H](Cc1ccccc1)NC(=O)Cc1ccccc1` it is 15000 nM. For `CC(C)C[C@H](NC(=O)Cc1cccc(F)c1)C(=O)N[C@@H](CC1CCCCC1)[C@@H](O)C(=O)Cc1ccccc1`, the IC50 was 400 nM.

Compound `CC(=O)[C@H](O)[C@H](CC1CCCCC1)NC(=O)[C@H](CC(C)C)NC(=O)CCC(C)C` yielded an IC50 of 620 nM. The figure for `CCOC(=O)[C@H](O)[C@H](CC1CCCCC1)NC(=O)[C@H](CC(C)C)NC(=O)CCC(C)C` is 1500 nM. The result for `CC(C)C[C@H](NC(=O)Cc1ccccc1)C(=O)N[C@@H](CC1CCCCC1)[C@@H](O)C(=O)c1ccccc1` reads 900 nM. The figure for `CC(C)CCC(=O)N[C@@H](CC(C)C)C(=O)N[C@@H](CC1CCCCC1)[C@@H](O)C(=O)C(C)C` is 550 nM; for `CCCC(=O)[C@H](O)[C@H](CC1CCCCC1)NC(=O)[C@H](CC(C)C)NC(=O)CCC(C)C` it is 580 nM. Take `CC(C)C[C@H](NC(=O)Cc1ccccc1)C(=O)N[C@@H](CC1CCCCC1)[C@@H](O)C(=O)Cc1ccccc1`: the IC50 was 400 nM. The figure for `CCOC(=O)[C@H](O)[C@H](CC1CCCCC1)NC(=O)[C@@H](NC(=O)Cc1ccccc1)C(C)C` is 3400 nM; for `CCOC(=O)[C@H](O)[C@H](CC1CCCCC1)NC(=O)[C@H](CC(C)C)NC(=O)Cc1ccccc1` it is 1600 nM.

(Values after ChEMBL document CHEMBL1136667, “Inhibitors of Abeta production: solid-phase synthesis and SAR of alpha-hydroxycarbonyl derivatives” (Bioorg Med Chem Lett, 2003).)
